Earlier results on 1 compound are cited in patent US6406529B1, “Method of reducing dentin sensitivity and compositions therefor” (MCG Research Institute, priority 1998, dated 2002).

For this data set the following is noted: 3% w/v applied to dentin; in vitro and in vivo.

As to `O=C([O-])C(=O)O.[K+]` [monopotassium-monohydrogen oxalate], the “Hydraulic conductance of dentin” value is on record as “reduced”.
